The values that follow come from paper PMC7406649, “The rare sugar D-tagatose protects plants from downy mildews and is a safe fungicidal agrochemical” (Communications Biology, 2020).

Holding throughout (type): biochemical
Assay [1] deals with T1, phosphomannose isomerase (LC500563) (Hyaloperonospora arabidopsidis, UniProt A0A7G1GEM8).
T1 construct: coding region in pColdI, His tag kept (45 kDa), expressed in E. coli SHuffle Express, HisTrap purified; equivalent to Hpa802576 of isolate Emoy2
T1 sequence (A0A7G1GEM8 1-415): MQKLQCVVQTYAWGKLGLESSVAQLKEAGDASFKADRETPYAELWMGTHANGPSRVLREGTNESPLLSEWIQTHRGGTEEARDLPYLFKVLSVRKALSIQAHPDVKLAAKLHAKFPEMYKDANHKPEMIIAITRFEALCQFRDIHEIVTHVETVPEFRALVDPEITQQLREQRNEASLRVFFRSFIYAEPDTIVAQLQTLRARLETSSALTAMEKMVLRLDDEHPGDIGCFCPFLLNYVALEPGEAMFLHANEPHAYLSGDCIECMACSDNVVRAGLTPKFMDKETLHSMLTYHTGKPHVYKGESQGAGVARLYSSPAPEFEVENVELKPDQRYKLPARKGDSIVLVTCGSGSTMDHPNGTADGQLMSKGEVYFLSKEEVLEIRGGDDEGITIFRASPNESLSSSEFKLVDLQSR
The assay is described as follows: HPLC of ABEE-labelled products. The note with it: 2.5 mM substrate, 10 mM MgCl2, pH 7.4, 30 °C, 6 h; products D-glucose 6-phosphate and D-mannose 6-phosphate.

Assay [2] concerns the target T1, phosphomannose isomerase (LC500563). Put plainly: HPLC of ABEE-labelled products; D-mannose 6-phosphate formation. The note with it: read-out: % inhibition at 37.5 mM.
The target is the same in assay [3]. The assay is described as follows: HPLC of ABEE-labelled products; D-glucose 6-phosphate formation. The note with it: read-out: % inhibition at 37.5 mM.
Another assay has as its target T2, fructokinase (LC500344) (Hyaloperonospora arabidopsidis, UniProt A0A7G1GEU5).
T2 construct: coding region in pGEX5X-1, N-terminal GST tag kept (58 kDa with tag), expressed in E. coli SoluBL21, GSTrap purified; equivalent to Hpa812304 of isolate Emoy2
T2 sequence (A0A7G1GEU5 1-297): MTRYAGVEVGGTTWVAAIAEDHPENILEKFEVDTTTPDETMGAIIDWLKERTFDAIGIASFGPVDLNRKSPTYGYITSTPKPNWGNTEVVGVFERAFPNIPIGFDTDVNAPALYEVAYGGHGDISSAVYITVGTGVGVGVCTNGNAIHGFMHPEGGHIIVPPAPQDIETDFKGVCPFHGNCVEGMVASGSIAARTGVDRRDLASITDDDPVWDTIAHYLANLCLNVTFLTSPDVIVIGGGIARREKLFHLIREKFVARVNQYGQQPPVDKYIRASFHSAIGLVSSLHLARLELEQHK
The assay is described as follows: Dixon plot; coupled pyruvate kinase/lactate dehydrogenase NADH assay at […] nm. The note with it: competitive with D-fructose (0.5-2.5 mM); 10-250 mM D-tagatose; 4 mM ATP, 8 mM MgCl2, pH 7.5, 25 °C; D-tagatose is also a substrate.

Usually inhibition stands for the change of the read-out against control, counted positive when it falls. As usually defined, the Ki is the equilibrium dissociation constant of an inhibitor or competing ligand from its target.

Take `O=P(O)(O)OC[C@H]1OC(O)(CO)[C@@H](O)[C@@H]1O` (stereo partly drawn) [D-fructose 6-phosphate]: the “HPLC of ABEE-labelled products” value in assay [1] was “both D-glucose 6-phosphate and D-mannose 6-phosphate were detected after the addition of D-fructose 6-phosphate”.
Turning to `O=P(O)(O)OC[C@H]1OC(O)(CO)[C@@H](O)[C@H]1O` (stereo partly drawn) [D-tagatose 6-phosphate], the inhibition at 37500 µM in assay [2] amounted to 60.8%; in assay [3], 38.2%.
`OCC1(O)OC[C@@H](O)[C@H](O)[C@@H]1O` (stereo partly drawn) [D-tagatose] gave an inhibitory constant (Ki) on fructokinase (LC500344) of 70 ± 5.14 mM.
